From US20090325936A1, “IMIDAZOPYRIDINE ANALOGS AS CB2 RECEPTOR MODULATORS, USEFUL IN THE TREATMENT OF PAIN, RESPIRATORY AND NON-RESPIRATORY DISEASES” (priority 2006, published 2009)
Like-named read-outs stand apart in the source and are kept apart here.

Experiments:
human CB2 = human CB2 (Homo sapiens, UniProt P34972); experiment: Cyclic AMP assay (HTRF), CHO cells expressing human CB2; assay type: cell-based; conditions: for Emax: CHO, read-out: CB2 Emax
Description: (§1) Chinese Hamster Ovary cells (CHO) expressing human CB1 or human CB2 (3.3×10^5 cells/ml) were preincubated for 15 min at room temperature with tested agonist and 3-isobutyl-1-methylxanthine (IBMX; 200 μM) in phosphate buffered saline containing 1 mg/ml BSA (assay buffer) followed by 30 min incubation with forskolin in a total volume of 10 μl. The optimal forskolin concentration for each cell line was established in a separate experiment and adjusted to stimulate 70% of maximal cAMP response. cAMP content was measured using an HTRF assay (CisBio) according to the manufacturer's two step protocol.

human CB1 = human CB1 (Homo sapiens, UniProt P21554); experiment: Cyclic AMP assay (HTRF), CHO cells expressing human CB1; assay type: cell-based
Description: as §1

[1] = agonist, forskolin-stimulated cAMP in CHO cells expressing human CB2, text calls the value IP, read-out: CB2 cAMP

Chain of human CB2 (P34972 whole entry): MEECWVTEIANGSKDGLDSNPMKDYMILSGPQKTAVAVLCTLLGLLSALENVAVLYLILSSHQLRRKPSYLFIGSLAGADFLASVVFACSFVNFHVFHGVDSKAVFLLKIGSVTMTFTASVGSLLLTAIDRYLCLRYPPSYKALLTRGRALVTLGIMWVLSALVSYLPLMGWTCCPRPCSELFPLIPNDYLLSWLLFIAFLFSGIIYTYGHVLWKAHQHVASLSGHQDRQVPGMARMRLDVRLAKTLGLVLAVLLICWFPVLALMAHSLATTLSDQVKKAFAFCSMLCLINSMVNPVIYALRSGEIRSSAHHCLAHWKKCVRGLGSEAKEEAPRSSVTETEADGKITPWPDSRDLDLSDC
Chain of human CB1 (P21554 whole entry): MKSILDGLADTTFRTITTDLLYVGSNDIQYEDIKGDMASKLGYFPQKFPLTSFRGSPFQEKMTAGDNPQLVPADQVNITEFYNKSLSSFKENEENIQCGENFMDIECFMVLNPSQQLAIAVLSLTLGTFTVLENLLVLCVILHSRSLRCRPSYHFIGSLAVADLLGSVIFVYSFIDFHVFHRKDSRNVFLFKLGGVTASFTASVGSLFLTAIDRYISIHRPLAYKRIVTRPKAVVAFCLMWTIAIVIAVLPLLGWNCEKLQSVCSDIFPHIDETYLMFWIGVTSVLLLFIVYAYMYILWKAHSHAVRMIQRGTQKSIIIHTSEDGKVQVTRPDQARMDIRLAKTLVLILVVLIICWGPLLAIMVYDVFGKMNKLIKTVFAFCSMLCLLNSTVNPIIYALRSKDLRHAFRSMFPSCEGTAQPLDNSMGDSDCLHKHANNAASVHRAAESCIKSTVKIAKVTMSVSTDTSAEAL

Row | Structure (SMILES) | Emax (human CB2) [%] | EC50 (human CB2; [1]) [nM] | EC50 (human CB1) [nM] | EC50 (human CB2) [nM]
1 | O=C(NCC1CCOCC1)c1nc(-c2cccnc2)n2ccccc12 | 74.7 | 6430 | > 17000 | 
2 | CC(NC(=O)c1nc(Cl)c2ccccn12)c1ccccc1Cl (stereo not drawn) | 83.8 |  | > 17000 | 18.4
3 | O=C(c1cccc(Cl)c1)c1nc(-c2ccc(F)cc2)n2ccccc12 | 63.7 | 176 | > 17000 | 
4 | CC(NC(=O)c1nc(N2CCOCC2)n2ccccc12)C(C)(C)C (stereo not drawn) | 99.5 |  | > 17000 | 5.2
5 | O=C(NC1(c2ccccc2)CC1)c1nc(-c2cccc(F)c2)n2ccccc12 | 69.8 |  | 544 | 62
6 | O=C(NC12CC3CC(CC(C3)C1)C2)c1nc(Oc2cccc(F)c2)n2ccccc12 | 91.5 |  | 140 | 1.92
7 | O=C(NC(C1CC1)C1CC1)c1nc(-c2ccc(F)cc2)c2ccccn12 | 96.4 |  | 405 | 2.01
8 | O=C(Nc1ccccc1Cl)c1nc(CN2CCC(O)C2)c2ccccn12 (stereo not drawn) | 69.9 | 261 | > 17000 | 
9 | O=C(NC12CC3CC(CC(C3)C1)C2)c1nc(C2CCCN2)n2ccccc12 (stereo not drawn) | 87.1 |  | 845 | 5.93
10 | O=C(Nc1cccc2cnccc12)c1nc(C(=O)N2CCC(F)CC2)n2ccccc12 | 79.5 |  | 2150 | 23.5
11 | O=C(NC12CC3CC(CC(C3)C1)C2)c1nc(C(O)c2cccnc2)n2ccccc12 (stereo not drawn) | 80.8 |  | > 17000 | 46.2
12 | O=C(c1ccc2ccccc2c1)c1nc(CN2CCOCC2)c2ccccn12 | 76.7 |  | 878 | 2.28
